Measured values taken from US20230241076A1, “HISTONE-ACETYLATION-MODULATING AGENTS FOR THE TREATMENT AND PREVENTION OF ORGAN INJURY” (The Regents of the University of Michigan, priority 2020, published 2023).

What was measured:
[1] = tested on: cardiomyocytes; settings: IR conditions; cited from earlier work
[2] = tested on: heart failure; settings: cited from earlier work
[3] = tested on: pig donor heart; test: pig donor heart, 10 h of cold storage followed by ex vivo perfusion; settings: 50 μM in HTK; 10 h of cold storage on ice, 30 minutes of reperfusion ex vivo; N=4
Procedure: FIG. 5. […] Pig hearts were perfused with 1 L HTK solution after cross clamp. Addition 2 L of HTK with or without canrenone were perfused and stored for 10 hr on ice. Pig hearts were perfused in ex vivo system with blood and Krebs buffer (1:4, hemoglobin concentration: […]). max dp/dt (contraction) and min dp/dt (relaxation) were calculated by average the max/min dp/dt for 10 minute period after 30 minutes of reperfusion using Millar Catheter. *P<0.05, **P<0.01. N=4.

[4] = tested on: murine donor heart; test: murine donor heart, 16 h of cold storage followed by ex vivo perfusion; settings: 50 μM, 60 minutes of reperfusion, N=8
Source text: FIG. 2. […] N=8 at each time point.

[5] = tested on: murine donor heart; test: murine donor heart, 16 h of cold storage followed by 24 h of heterotopic transplantation; format: in vivo; settings: 50 μM in storage, n=8
Procedure: FIG. 4. […] Donor heart was isolated and store with or without canrenone for 16 hr, then the donor hearts were heterotopic transplanted to receipt cervical region. max dp/dt (contraction) and min dp/dt (relaxation) were calculated by average the max/min dp/dt for 1 minute period after 24 hr of transplantation using Millar Catheter. *P<0.05, n=8.

[6] = large epidemiologic studies; cited from earlier work
[7] = tested on: donor heart; test: donor heart function after 16 hr of cold storage followed by reperfusion (VPA)
Source text: (§1) FIG. 7, panels A-C. […] Panels B and C.

[8] = tested on: heart, kidneys, lung and liver; settings: cited from earlier work
[9] = tested on: mineralocorticoid receptor (MR); settings: cited from earlier work
[10] = tested on: heart; settings: rats; cited from earlier work
[11] = tested on: Irg1; test: Irg1 expression in cold-stored donor heart; settings: cold storage of donor heart, VPA treatment
Source text: as §1

[12] = tested on: ischemia reperfusion (IR) rats; settings: cited from earlier work; for heart function: ischemia reperfusion (IR) rats

## Cc1sc2c(c1C)C(c1ccc(Cl)cc1)=N[C@@H](CC(=O)OC(C)(C)C)c1nnc(C)n1-2 [JQ-1]
[1]
  protection of cardiomyocytes: may protect cardiomyocytes
[2]
  heart failure: effectively halt heart failure

## C[C@]12CCC(=O)C=C1C=C[C@@H]1[C@@H]2CC[C@@]2(C)[C@H]1CC[C@@]21CCC(=O)O1 [Canrenone, canrenone]
[3]
  donor heart function, max dp/dt (contraction) and min dp/dt (relaxation): improve pig donor heart function
[4]
  donor heart function, max dp/dt (contraction) and min dp/dt (relaxation): improves murine donor heart function
[5]
  donor heart function, max dp/dt (contraction) and min dp/dt (relaxation): improve murine donor heart function

## CCCC(CCC)C(=O)O [VPA, valproic acid]
[6]
  incidence of stroke and AMI: reduce the incidence of stroke and AMI
[7]; Irg1 deletion, 16 hr of cold storage followed by reperfusion
  effect of VPA on donor heart function with Irg1 deletion: Irg1 deletion reduce the protective effect
[7]; cold storage of donor heart
  donor heart ischemic tolerance: improve donor heart ischemic tolerance
[8]
  fibrosis: reduce fibrosis
[9]
  acetylation of the mineralocorticoid receptor (MR): affect the acetylation of the mineralocorticoid receptor
[10]
  protection of the heart against AMI injury: protects the heart against AMI injury
[11]
  Irg1 expression: further stimulates Irg1 upregulation

## CCCCCCCC(=O)O [octanoate]
[12]; 160 mg/kg i.p. injected once at the time of reperfusion
  heart functional recovery: significant heart functional recovery
[12]
  heart function: improve heart function

## CC(=O)O [acetate]
[12]
  heart function: improve heart function
